Measured values: US12059408B2, “Treatment of cognitive impairment associated with schizophrenia” (Boehringer Ingelheim International GmbH, priority 2020, dated 2024)

Assays:
[1] = test system: patients with schizophrenia; assay: Phase II CIAS trial: cognition by MCCB, compound I add-on to antipsychotics vs placebo; format: in vivo, human; set-up: Change from baseline in MCCB overall composite score at Week 12, adjusted mean / Change from baseline in MCCB overall composite score at Week 12, comparison vs. placebo, adjusted mean: scale not given here; details: for Change from baseline in MCCB overall composite score at Week 12, adjusted mean: 12 weeks; for Change from baseline in MCCB overall composite score at Week 12, adjusted mean / Change from baseline in MCCB overall composite score at Week 12, comparison vs. placebo, adjusted mean: MMRM; for Change from baseline in MCCB overall composite score at Week 12, adjusted mean / Change from baseline in MCCB overall composite score at Week 12, comparison vs. placebo, adjusted mean / Proportion of responders, change from baseline in MCCB overall composite score at Week 12 / Responders, comparison vs. placebo, odds ratio: FAS; for Responders, comparison vs. placebo, odds ratio: logistic regression
From the text: This trial was designed to investigate whether compound I as an add-on therapy to antipsychotics (except clozapine) can improve cognitive symptoms in patients with schizophrenia.
The primary endpoint was cognition assessed using the Measurement and Treatment Research to Improve Cognition in Schizophrenia (MATRICS) consensus cognitive battery (MCCB).
• 1) Men or women who are 18-50 years (inclusive) of age at time of consent with established schizophrenia (as per DSM-5) with the following clinical features: • Outpatient, with no hospitalization for worsening of schizophrenia within 3 months (hospitalization for social management and/or day hospital programs within this time are acceptable) prior to randomization • Medically stable over the prior 4 weeks and psychiatrically stable without symptom exacerbation within 3 months prior to randomization • patients who have no more than a “moderate severe” rating on the Positive and Negative Symptom Scale (PANSS) positive items P1, P3-P7 (item score≤5) and no more than a “moderate” rating on the PANSS positive item P2 (item score≤4) • 2) Current antipsychotic and concomitant psychotropic medications as assessed at Visit 1 must meet the criteria below: • a. patients may have up to 2 antipsychotics (typical and/or atypical) • b. patients must be maintained on current typical and/or atypical antipsychotics other than Clozapine and on current dose for at least 4 weeks prior to randomization and/or maintained on current long acting injectable antipsychotics and current dose for at least 3 months prior to randomization • c. patients must be maintained on current concomitant psychotropic medications, anticholinergics, antiepileptics and/or lithium for at least 3 months prior to randomization and on current dose for at least 4 weeks prior to randomization.
Patients eligible for the trial were randomly assigned, in a 1:1:1:1:2 ratio to either • 2 mg compound I • 5 mg compound I • 10 mg compound I • 25 mg compound I • Placebo
An MCPMod approach combined with MMRM was used to establish the proof of concept in this trial.
The null hypothesis was that there was a flat dose-response pattern across placebo and any dose of compound I within the tested dose range on the mean change in the MCCB overall composite score from baseline to Week 12. The alternative hypothesis was that there was a non-flat dose-response pattern indicating a benefit of compound I versus placebo.
(§1) Patients in the FAS were analysed according to the ITT principle, i.e. according to their randomised trial medication. The FAS was used for analyses of efficacy.
The primary endpoint of this trial was the change from baseline in cognitive function as measured by the MCCB overall composite score after 12 weeks of treatment. The primary efficacy analysis was based on the full analysis set (FAS).
Model includes fixed, categorical factors of planned treatment, analysis visit, and planned treatment by analysis visit interaction, as well as the continuous fixed covariate of baseline value and baseline value by analysis visit interaction. Subject is treated as random effect. Unstructured covariance structure was used to fit the mixed model. Kenward-Roger was used to model degrees of freedom.

CSF glycine [2] = assay: Animal cognition tasks with CSF glycine and CSF compound levels; format: in vivo; details: animals
[3] = as above; format: in vivo; details: animals, efficacious doses
CSF glycine [4] = assay: Proof of clinical mechanism trial in healthy volunteers; format: in vivo, human; details: 10 mg dose
[5] = test system: patients with schizophrenia; assay: Phase II CIAS trial: safety (AEs, laboratory tests, PANSS, C-SSRS)
Method: This was a 12-week, multi-centre, multi-national, randomised, double-blind, double-dummy, placebo-controlled, parallel-group trial in patients with clinically stable schizophrenia.
(§2) The TS included all patients who were randomised and were treated with ≥1 dose of trial medication. Patients in the TS were analysed according to the actual trial medication they received at randomisation. The TS was used for analyses of safety, demographics, and baseline characteristics.
Safety was assessed based on the frequency of AEs, recording of vital signs, ECG measurements, standard laboratory tests, physical examination, neurological examination, as well as PANSS and C-SSRS questionnaires.

[6] = test system: patients with mild to moderate dementia due to AD; assay: AD trial: safety (AEs, laboratory tests); format: in vivo, human; details: 25 mg treatment group
Method: This was a 12-week, multi-centre, multi-national, randomised, double-blind, double-dummy, placebo-controlled, parallel-group trial in patients with mild to moderate dementia due to AD.
as §2
Safety assessments included the frequency of AEs, recording of vital signs, ECG measurements, standard laboratory tests, physical examination, and C-SSRS questionnaires.

[7] = test system: patients with mild to moderate dementia due to AD; assay: AD trial: cognition by ADAS-Cog11, compound I vs placebo; format: in vivo, human; details: for Change from baseline in ADAS-Cog11 total score at Week 12, adjusted mean / Change from baseline in ADAS-Cog11 total score at Week 12, comparison vs. placebo, adjusted mean: MMRM, FAS (OC)
From the text: This trial was designed to investigate whether compound I either alone as monotherapy or as an add-on therapy to acetylcholinesterase inhibitors can improve cognitive symptoms in patients with AD.
The primary endpoint was change from baseline in ADAS-Cog11 (Alzheimer's Disease Assessment Scale-cognitive subscale) total score after 12-week treatment. (Lower values in the ADAS-Cog11 score indicate better cognitive function.)
• 1) Diagnosis of mild-to-moderate Alzheimer's Disease Dementia according to the recommendations from the National Institute on Aging-Alzheimer's Association workgroups on diagnostic guidelines for Alzheimer's disease. • 2) Male or female patients at least 55 years of age. Patients older than 85 years could be included based on an acceptable general health status, (e.g. concomitant diseases, physical capability to follow the required study procedures (visits etc.)) at discretion of the investigator • 3) MMSE score of 15-26 at screening (Visit 1). • 4) Concomitant use of AChEIs allowed but not required. Key Exclusion Criteria • 1) Dementia secondary to disorders other than Alzheimer's Disease Dementia. • 2) Any central nervous system disease other than AD which according to the investigator may be associated with worsening of cognition. • 3) Any suicidal behaviour in the past 2 years (i.e. actual attempt, interrupted attempt, aborted attempt, or preparatory acts or behaviour). • 4) Any suicidal ideation of type 4 or 5 in the C-SSRS in the past 3 months (i.e. active suicidal thought with intent but without specific plan, or active suicidal thought with plan and intent). • 5) Previous participation in investigational drug studies of dementia of Alzheimer's Type within three months prior to screening. Patients having received any active treatment in studies targeting disease modification of AD are excluded.
Patients eligible for the trial were randomly assigned, in a 1:1:1:1:1 ratio to either • 2 mg compound I • 5 mg compound I • 10 mg compound I • 25 mg compound I • Placebo
An MCPMod approach combined with MMRM was used to test for the proof of concept in this trial.
as §1
The primary endpoint was the change from baseline in ADAS-Cog11 total score after 12 weeks of treatment. The analyses for PoC and dose-finding were done using the MCPmod technique for MMRM.
Model includes fixed, categorical factors of planned treatment (p-value=0.3425), analysis visit (p-value=0.7890), baseline MMSE stratification factor (≥20, <20) (p-value≤0.0001), and planned treatment by analysis visit interaction (p-value=0.7534), as well as the continuous fixed covariate of baseline value (p-value≤0.0001) and baseline value by analysis visit interaction (p-value=0.1185).

## C[C@@H](Oc1ccc(S(C)(=O)=O)cc1C(=O)N1C[C@@H]2C[C@]2(c2cc(C(F)(F)F)on2)C1)C(F)(F)F [compound I, [5-(methylsulfonyl)-2-{[(2R)-1,1,1-trifluoropropan-2-yl]oxy}phenyl] {(1R,5R)-1-[5-(trifluoromethyl)-1,2-oxazol-3-yl]-3-azabicyclo[3.1.0]hex-3-yl}methanone]
[1]; 2 mg
  Effect on cognition (dose considerations, Phase II trial): ineffective
[1]; 2 mg once daily oral
  Change from baseline in MCCB overall composite score at Week 12, adjusted mean: 1.784
[1]; 2 mg once daily
  Change from baseline in MCCB overall composite score at Week 12, comparison vs. placebo, adjusted mean: 0.280
[1]; 5 mg
  Effect on cognition (dose considerations, Phase II trial): numerically improved cognition in Asian subpopulation
[1]; 5 mg once daily oral
  Change from baseline in MCCB overall composite score at Week 12, adjusted mean: 1.641
[1]; 5 mg once daily
  Change from baseline in MCCB overall composite score at Week 12, comparison vs. placebo, adjusted mean: 0.137
[1]; 10 mg
  Effect on cognition (dose considerations, Phase II trial), primary endpoint: separated best from placebo
[1]; 10 mg and 25 mg treatment groups compared with placebo
  Change from baseline in MCCB neurocognitive composite score at Week 12: A larger change from baseline was observed
[1]; 10 mg once daily oral
  Change from baseline in MCCB overall composite score at Week 12, adjusted mean: 3.486
[1]; 10 mg once daily
  Change from baseline in MCCB overall composite score at Week 12, comparison vs. placebo, adjusted mean: 1.982
[1]; 25 mg
  Effect on cognition (dose considerations, Phase II trial): efficacy less consistent across analyses than the 10 mg dose
[1]; 25 mg once daily oral
  Change from baseline in MCCB overall composite score at Week 12, adjusted mean: 3.234
[1]; 25 mg once daily
  Change from baseline in MCCB overall composite score at Week 12, comparison vs. placebo, adjusted mean: 1.730
[1]; certain doses, patients having schizophrenia
  Cognitive performance compared to placebo, phase 2 clinical trial: improves cognitive performance
[1]; doses of 2 to 25 mg
  Dose-response for change from baseline at Week 12 in MCCB overall composite T-score: non-flat dose-response curve
[1]; responder ≥3, 2 mg
  Proportion of responders, change from baseline in MCCB overall composite score at Week 12: 46.3%
  Responders, comparison vs. placebo, odds ratio: 1.184
[1]; responder ≥3, 5 mg
  Proportion of responders, change from baseline in MCCB overall composite score at Week 12: 42.3%
  Responders, comparison vs. placebo, odds ratio: 1.006
[1]; responder ≥3, 10 mg
  Proportion of responders, change from baseline in MCCB overall composite score at Week 12: 61.5%
  Responders, comparison vs. placebo, odds ratio: 2.200
[1]; responder ≥3, 25 mg
  Proportion of responders, change from baseline in MCCB overall composite score at Week 12: 47.4%
  Responders, comparison vs. placebo, odds ratio: 1.241
[1]; responder ≥4, 2 mg
  Proportion of responders, change from baseline in MCCB overall composite score at Week 12: 40.3%
  Responders, comparison vs. placebo, odds ratio: 1.298
[1]; responder ≥4, 5 mg
  Proportion of responders, change from baseline in MCCB overall composite score at Week 12: 38.0%
  Responders, comparison vs. placebo, odds ratio: 1.180
[1]; responder ≥4, 10 mg
  Proportion of responders, change from baseline in MCCB overall composite score at Week 12: 52.6%
  Responders, comparison vs. placebo, odds ratio: 2.131
[1]; responder ≥4, 25 mg
  Proportion of responders, change from baseline in MCCB overall composite score at Week 12: 41.0%
  Responders, comparison vs. placebo, odds ratio: 1.338
[1]; responder ≥5, 2 mg
  Proportion of responders, change from baseline in MCCB overall composite score at Week 12: 35.8%
  Responders, comparison vs. placebo, odds ratio: 1.370
[1]; responder ≥5, 5 mg
  Proportion of responders, change from baseline in MCCB overall composite score at Week 12: 32.4%
  Responders, comparison vs. placebo, odds ratio: 1.176
[1]; responder ≥5, 10 mg
  Proportion of responders, change from baseline in MCCB overall composite score at Week 12: 44.9%
  Responders, comparison vs. placebo, odds ratio: 1.998
[1]; responder ≥5, 25 mg
  Proportion of responders, change from baseline in MCCB overall composite score at Week 12: 39.7%
  Responders, comparison vs. placebo, odds ratio: 1.619
CSF glycine [2]
  Increase of CSF glycine at doses efficacious in animal cognition tasks: approximately 50%
[3]
  CSF levels of compound I required for efficacy: 1-2 × GlyT1 IC50
CSF glycine [4]
  CSF glycine increase and CSF level criteria: these criteria were met by the 10 mg dose
[5]; 2 mg
  Haemoglobin, mean change from baseline at last on-treatment value: -0.2 g/L
  Haemoglobin, relative change from baseline: −0.1%
[5]; 5 mg
  Haemoglobin, mean change from baseline at last on-treatment value: -0.7 g/L
  Haemoglobin, relative change from baseline: −0.5%
[5]; 10 mg
  Haemoglobin, mean change from baseline at last on-treatment value: 3.3 g/L
  Haemoglobin, relative change from baseline: −2.3%
[5]; 25 mg
  Haemoglobin, mean change from baseline at last on-treatment value: 4.5 g/L
  Haemoglobin, relative change from baseline: −3.2%
[5]; all dose groups vs placebo
  Headache (most frequently observed AE): reported more frequently in all dose groups of compound I than placebo
[5]; all treatment groups, 12 weeks
  Deaths: no deaths
[5]; any treatment arm
  Patients reporting on-treatment AEs: Approximately 50%
[5]; compound I vs placebo
  Suicidal ideation and behaviour assessed using C-SSRS: No significant differences
[5]; in vivo
  Worsening of schizophrenia assessed by PANSS total score: no worsening of schizophrenia
[6]
  Decrease of haemoglobin levels, maximum effect: 5.7%
[7]; 2 mg once daily oral
  Change from baseline in ADAS-Cog11 total score at Week 12, adjusted mean: −0.02
[7]; 2 mg
  Change from baseline in ADAS-Cog11 total score at Week 12, comparison vs. placebo, adjusted mean: 0.05
[7]; 5 mg once daily oral
  Change from baseline in ADAS-Cog11 total score at Week 12, adjusted mean: 0.23
[7]; 5 mg
  Change from baseline in ADAS-Cog11 total score at Week 12, comparison vs. placebo, adjusted mean: 0.30
[7]; 10 mg once daily oral
  Change from baseline in ADAS-Cog11 total score at Week 12, adjusted mean: 0.69
[7]; 10 mg
  Change from baseline in ADAS-Cog11 total score at Week 12, comparison vs. placebo, adjusted mean: 0.76
[7]; 25 mg once daily oral
  Change from baseline in ADAS-Cog11 total score at Week 12, adjusted mean: −0.08
[7]; 25 mg
  Change from baseline in ADAS-Cog11 total score at Week 12, comparison vs. placebo, adjusted mean: −0.02
[7]; 2 to 25 mg
  Dose-response of change from baseline in ADAS-Cog11 total score at Week 12 (MCPmod, 6 models): no dose response relation was observed
[7]; change from baseline
  Secondary and further endpoints: ADCS-ADL, CIBIC+, cognitive composite, COWAT, VFT, Coding, Digit Span Backwards: no treatment differences indicative of a benefit were found
[7]; same doses regimen as CIAS
  Improvement of cognition in patients suffering from Alzheimer's disease: ineffective
